Patent US20240350489A1, “LOU064 FOR TREATING MULTIPLE SCLEROSIS” (NOVARTIS AG, priority 2021, published 2024)
Entries after “also recorded” stand apart in the source; their conditions may differ.

What was measured:
[1] = Passive permeability, canine P-gp knockout MDCK cell monolayers (MDCK-LE V2); format: in vitro ADME; conditions: dog, MDCK; 10 μM apical, two hours incubation
Procedure: (§1) Passive permeability measurement using canine P-gp knockout MDCK cell monolayers (MDCK-LE V2)
(§2) A cell-based assay was used to assess the passive permeability of drug candidates in the context of gastro-intestinal absorption. A MDCK cell line where the endogenous canine Mdr1 (cMdr1) gene encoding P-gp has been knocked out is grown to form monolayers on a 96-well Transwell plate. Compounds are loaded in cassettes of three at a concentration of 10 μM each to the apical compartment and following a period of two hours incubation the amount of compound appearing in the basal chamber is quantitated by tandem mass spectrometry.
(§3) In particular, a MDCK cell line was generated by knocking-out the endogenous canine Mdr1 (cMdr1) gene. A subclone of this cell line was used to relate passive permeability to the fraction absorbed in human intestine using a set of 37 commercial compounds for which the fraction absorbed was known. The assay is able to estimate the fraction absorbed in human based on the Papp measured in the assay.
(§4) Samples were subject to RapidFire/MS/MS analysis and LC/MS/MS analysis. […]

[2] = system: canine P-gp knockout MDCK cell monolayers (MDCK-LE V2); assay: as above; format: in vitro ADME; conditions: MDCK trans-well assay
Procedure: as §1, §2, §3, §4

[3] = Phase 2b dose range finding core study in CSU subjects, safety; conditions: for overall tolerability / safety profile: whole dose range
Procedure: In a Phase 2b, randomized, double-blind, placebo-controlled trial evaluating the efficacy and safety of LOU064 over 12 weeks in patients inadequately controlled by Hi-antihistamines, with at least moderately active CSU, patients received LOU064 10 mg q.d. (once daily), 35 mg q.d., 100 mg q.d., 10 mg b.i.d. (twice daily), 25 mg b.i.d., 100 mg b.i.d., or placebo (1:1:1:1:1:1:1 ratio).
In a dose range finding study conducted in CSU subjects the following doses are being tested: 10, 35 and 100 mg q.d. as well as 10, 25 and 100 mg b.i.d. and placebo over 12 weeks.

[4] = system: neuroinflammation signature in microglia; assay: scRNA-seq analysis of brains and spinal cords of RatMOG EAE mice; format: in vivo, mouse; conditions: LOU064 vs controls
Procedure: 10X Genomics Chromium raw sequencing reads were processed with Cell Ranger [Zheng, G. et al. (2017), Nat Commun 8, 14049]. All subsequent analyses were carried out in R v4.1 and Bioconductor v3.14, loosely following the guidelines in “Orchestrating single-cell analysis with Bioconductor” [Amezquita, R. A. et al (2020), Nat Methods 17, 137-145] and using the framework provided by the scuttle, scater [Davis J McCarthy et al. (2017), Bioinformatics, Vol 33, 8, 1179-1186] and scran [Lun ATL et al. (2016), F1000 Research, 5:2122;
To correct for library size and composition biases, normalization was performed by pooling cells and deconvoluting size factors, followed by a log2 transformation. […]
For each cell type, pseudobulk differential expression analysis was performed using edgeR [Robinson M D et al. (2010), Bioinformatics, 26(1), 139-140], followed by gene set enrichment analysis with fgsea [Gennady Korotkevich et al., doi: https://doi.org/10.1101/060012] and multiple gene set collection from MSigDB [Arthur Liberson et al., Bioinformatics, Vol 27, 12:1739-1740]. A neuroinflammation signature from the Human Phenotype Ontology [Kohler S. et al. (2021) Nucleic Acids Res. 49(D1):D1207-D1217. doi: 10.1093/nar/gkaa1043] was scored with UCell [Andreatta M. et al. (2021), Comput Struct Biotechnol J. 19:3796-3798] and its significance assessed with a one-tailed Mann-Whitney U test.

[5] = core study, any LOU064 dose, listed as remibrutinib

C=CC(=O)N(C)CCOc1c(N)ncnc1-c1cc(F)cc(NC(=O)c2ccc(C3CC3)cc2F)c1C [LOU064, N-(3-(6-amino-5-(2-(N-methylacrylamido)ethoxy)pyrimidin-4-yl)-5-fluoro-2-methylphenyl)-4-cyclopropyl-2-fluorobenzamide]
Papp A→B at 2 h, 10 μM [1]: 37.3 ×10⁻⁶ cm/s | recovery [2]: high recovery | Grade 3 creatinine elevation, patients ([3]; 10 mg q.d., Week 8, after starting a ketogenic diet): One | Grade 3 neutrophil count decrease ([3]; 35 mg q.d., Week 12): one | Grade 3 alanine transaminase elevation ([3]; 100 mg q.d., Week 8): one | deaths ([3]; core study): no deaths | laboratory findings, including blood cell counts ([3]; core study): no significant laboratory findings | AE Headache (PT) [3, 5]: 9.7% | AE Infections and infestations (SOC) [3, 5]: 24.0% | AE Skin and subcutaneous tissue disorders (SOC) [3, 5]: 16.9% | Common Terminology Criteria for AEs Grade 3 events (laboratory data) ([3]; core study, in total): three | patients with ALT>5xULN ([3]; core study, normalised on treatment): 1 patient | overall tolerability / safety profile [3]: well-tolerated across the whole dose range | overall tolerability / safety profile ([3]; listed as Remibrutinib): favorable safety profile across the whole dose range | neuroinflammation gene signature in microglia [4]: significant downregulation across most conditions; also recorded: significantly downregulated
